Measured values published in patent EP1935887A1, “Heterocyclic substituted carbonyl derivatives and their use as dopamine D3 receptor ligands” (Aventis Pharmaceuticals Inc., priority 2001, dated 2002).

Biological target: T1, Cloned Human Dopamine D3 Receptors (Homo sapiens, UniProt P35462)
T1 construct: expressed in transfected cells; membrane homogenate
Experiment: [N-Methyl-3H]Spiroperidol binding to cloned human dopamine D3 receptors
Conditions: D3 Ki (nM)
How it was run: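 [N-methyl-3H]spiroperidol binding is run in Tris buffer, pH 7.7. Receptor source is membranes of a stably transfected, high-expressing CHO clone carrying the human D3 gene, kept at -80°C in 10% DMSO.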

T1 sequence (P35462 whole entry): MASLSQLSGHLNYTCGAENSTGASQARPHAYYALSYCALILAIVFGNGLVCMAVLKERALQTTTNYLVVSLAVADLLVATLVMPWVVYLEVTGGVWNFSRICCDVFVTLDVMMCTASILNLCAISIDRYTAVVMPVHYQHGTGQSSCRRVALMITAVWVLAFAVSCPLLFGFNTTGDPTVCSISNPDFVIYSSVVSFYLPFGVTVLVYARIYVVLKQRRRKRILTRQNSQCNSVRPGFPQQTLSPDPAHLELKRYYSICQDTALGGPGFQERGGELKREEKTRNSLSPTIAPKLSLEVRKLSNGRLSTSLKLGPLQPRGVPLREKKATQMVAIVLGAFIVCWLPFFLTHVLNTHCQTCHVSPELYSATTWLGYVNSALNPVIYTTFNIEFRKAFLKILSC

Row | SMILES | Ki [nM]
1 | COc1ccccc1CN1CCC(NC(=O)C2CC2CN2CCC(c3noc4ccsc34)CC2)CC1 (stereo not shown) [compound 831991] | 0.722
2 | O=C(C1CC1CN1CCC(c2noc3ccsc23)CC1)N1CCC(Nc2ccc(Cl)cc2)CC1 (stereo not shown) [compound 832395] | 30.2
3 | O=C([C@@H]1C[C@H]1CN1CCC(c2noc3ccsc23)CC1)N1CCN(Cc2ccc(Cl)cc2)CC1 [compound 833128] | 28.7

Same assay, conditions: Table 2; unit inferred; read-out: d3Ki

Row | SMILES | Ki [nM]
4 | C[C@H]1CC[C@H](NC(=O)[C@@H]2C[C@H]2CN2CCN(CCc3ccccc3)CC2)CC1 [compound 827198] | 161
5 | C[C@@]1(C(=O)NCc2ccccc2)C[C@H]1CN1CCN(c2csc3cc(C(F)(F)F)ccc23)CC1 [compound 825896] | 53.3
6 | CCN(C(=O)CCCCN1CCN(c2csc3cc(F)ccc23)CC1)c1ccc2c(c1)OCO2 [compound 822130] | 51
7 | C[C@H]1CC[C@H](NC(=O)[C@@H]2C[C@H]2CN2CCN(c3cccc4cccnc34)CC2)CC1 [compound 827253] | 15.8
8 | CCC1CCC(NC(=O)C2CC2CN2CCN(c3noc4ccsc34)CC2)CC1 (stereo not shown) [compound 818574] | 9.6
9 | CC1[C@@H](CN2CCN(c3csc4cc(C(F)(F)F)ccc34)CC2)[C@@H]1C(=O)NCC1CC1 (stereo partly shown) [compound 825872] | 104
10 | CCOC(=O)C1CCC(NC(=O)CCCN2CCN(c3csc4cc(F)ccc34)CC2CCCc2ccccc2)CC1 (stereo not shown) [compound 827106] | 317
11 | CCC1(O)CCC(NC(=O)[C@@H]2C[C@H]2CN2CCN(c3csc4cc(C(F)(F)F)ccc34)CC2)CC1 (stereo partly shown) [compound 818497] | 5.52
12 | O=C(CCCN1CCN(c2csc3cc(F)ccc23)CC1Cc1ccccc1)NC1CCCC1 (stereo not shown) [compound 827101] | 148
13 | C[C@H]1CC[C@H](NC(=O)[C@@H]2C[C@H]2CN2CCN(c3csc4cc(C(F)(F)F)ccc34)CC2)CC1 [compound 815916] | 5
14 | C[C@H]1CC[C@H](NC(=O)CCCN2CCN(c3csc4cc(F)ccc34)CC2CCCc2ccccc2)CC1 (stereo partly shown) [compound 827105] | 117
15 | O=C(CCCN1CCN(c2csc3cc(F)ccc23)CC1)Nc1cccc2ccccc12 [compound 822145] | 176
16 | CN(C)c1ccc(CNC(=O)[C@]2(C)C[C@H]2CN2CCN(c3csc4cc(C(F)(F)F)ccc34)CC2)cc1 [compound 825894] | 59
17 | CN(C)c1ccc(CNC(=O)[C@@H]2C[C@H]2CN2CCN(c3csc4cc(C(F)(F)F)ccc34)CC2)cc1 [compound 826066] | 60.3
18 | O=C(NC1CC1)[C@@H]1C[C@H]1CN1CCN(c2csc3cc(C(F)(F)F)ccc23)CC1 [compound 822202] | 8.1
19 | Cc1ccc(N2CCCN(C[C@@H]3C[C@H]3C(=O)N[C@H]3CC[C@H](C)CC3)CC2)nc1 [compound 827731] | 19.5
20 | CCOC(=O)[C@H]1CC[C@H](NC(=O)CCCN2CCN(c3csc4cc(C(F)(F)F)ccc34)CC2CCc2ccccc2)CC1 (stereo partly shown) [compound 827071] | 454
21 | O=C([C@@H]1C[C@H]1CN1CCN(c2csc3cc(C(F)(F)F)ccc23)CC1)N(c1ccccc1)C1CCCCC1 [compound 826886] | 136
22 | C[C@H]1CC[C@H](NC(=O)[C@@H]2C[C@H]2CN2CCN(c3ncccc3Cl)CC2)CC1 [compound 817565] | 1.73
23 | CCC1CCC(NC(=O)C2CC2CN2CCN(c3cc(C)ccc3C)CC2)CC1 (stereo not shown) [817570A] | 5.04
24 | CN(C(=O)CCCCN1CCN(c2csc3cc(F)ccc23)CC1)c1cccc(Oc2ccccc2)c1 [compound 822142] | 39.1
25 | C[C@H]1CC[C@H](NC(=O)[C@@H]2C[C@H]2CN2CCN(c3cc(Cl)cc(Cl)c3)CC2)CC1 [compound 817095] | 0.671
26 | CN(C(=O)CCCCN1CCN(c2csc3cc(F)ccc23)CC1)c1cccc2ccccc12 [compound 822138] | 81
27 | CCOC(=O)[C@H]1CC[C@H](NC(=O)CCCN2CCCN(c3csc4cc(F)ccc34)CC2)CC1 [compound 826825] | 74.9
28 | O=C(CCCN1CCN(c2csc3cc(F)ccc23)CC1Cc1ccccc1)NC1CCCCC1 (stereo not shown) [compound 827102] | 218
29 | CC1CCC(NC(=O)C2CC2CN2CCN(c3ccc(F)cc3)CC2)CC1 (stereo not shown) [compound 827196] | 2.35
30 | O=C(NC1CCC1)[C@@H]1C[C@H]1CN1CCN(c2csc3cc(C(F)(F)F)ccc23)CC1 [compound 826073] | 32.3
31 | COc1cc(CNC(=O)[C@@H]2C[C@H]2CN2CCN(c3csc4cc(C(F)(F)F)ccc34)CC2)cc(OC)c1OC [compound 826079] | 106
32 | CN(C(=O)CCCN1CCN(c2csc3cc(F)ccc23)CC1Cc1ccccc1)C1CCCCC1 (stereo not shown) [compound 827089] | 307

Same assay, conditions: Table 2 part the 10th table; read-out: d3Ki

Row | SMILES | Ki [nM]
33 | O=C(CCCN1CCN(c2csc3cc(F)ccc23)CC1CCCc1ccccc1)N1CCC(O)CC1 (stereo not shown) [compound 827113] | 95
34 | O=C(CCCN1CCCN(c2csc3cc(F)ccc23)CC1)N1CCCC1 [compound 826839] | 9.37
35 | O=C([C@@H]1C[C@H]1CN1CCCN(c2csc3cc(F)ccc23)CC1)N1CCCC1 [compound 826879] | 1.59
36 | O=C(CCCN1CCN(c2csc3cc(F)ccc23)CC1Cc1ccccc1)N1CCC(N2CCCC2)CC1 (stereo not shown) [compound 827097] | 51.5
37 | CC1(C)CCCN(C(=O)CCCN2CCN(c3csc4cc(C(F)(F)F)ccc34)CC2Cc2ccccc2)C1 (stereo not shown) [compound 827068] | 197
38 | CCOC(=O)C1CN(C(=O)[C@@H]2C[C@H]2CN2CCN(c3csc4cc(C(F)(F)F)ccc34)CC2)CCC1=O (stereo partly shown) [compound 826659] | 140
39 | O=C([C@@H]1C[C@H]1CN1CCN(c2csc3cc(F)ccc23)CC1)N1CCCC1 [compound 826669] | 0.24
40 | CC1CCCN1C(=O)[C@@H]1C[C@H]1CN1CCN(c2csc3cc(C(F)(F)F)ccc23)CC1 (stereo partly shown) [compound 826918] | 30.3
41 | O=C([C@@H]1C[C@H]1CN1CCN(c2csc3cc(C(F)(F)F)ccc23)CC1)N1CCC(Cc2ccccc2)CC1 [compound 826662] | 69
42 | C[C@@]1(C(=O)N2CCCCC2)C[C@H]1CN1CCN(c2csc3cc(C(F)(F)F)ccc23)CC1 [compound 825891] | 118
43 | O=C([C@@H]1C[C@H]1CN1CCN(c2csc3cc(C(F)(F)F)ccc23)CC1)N1CCC(O)CC1 [compound 826660] | 53
44 | NC(=O)C1CCN(C(=O)[C@@H]2C[C@H]2CN2CCN(c3csc4cc(C(F)(F)F)ccc34)CC2)CC1 [compound 826661] | 25
45 | CC1CC(C)CN(C(=O)[C@@H]2C[C@H]2CN2CCN(c3csc4cc(C(F)(F)F)ccc34)CC2)C1 (stereo partly shown) [compound 826913] | 86.1

Same assay, conditions: d3Ki, Table 2; unit inferred

Row | SMILES | Ki [nM]
46 | C[C@H]1CC[C@H](NC(=O)[C@H]2C[C@@H]2CN2CCN(c3noc4ccsc34)CC2)CC1 [compound 817893] | 245

Same assay, conditions: read-out: D3 Ki

Row | SMILES | Ki [nM]
47 | C[C@H]1CC[C@H](NC(=O)[C@@H]2C[C@H]2CN2CCN(c3nn(-c4ccc(OC(F)(F)F)cc4)c4ccsc34)CC2)CC1 [compound 833876] | 50.3
48 | O=C(NCCCN1CCCCC1)[C@@H]1C[C@H]1CN1CCC(c2nn(CC(F)(F)F)c3ccsc23)CC1 [A002328969] | 137
49 | COc1cccc2c(C3CCN(C[C@@H]4C[C@H]4C(=O)N4CCC(Oc5ccc(F)cc5)CC4)CC3)noc12 [compound 831878] | 189
50 | CC(C)(C)OC(=O)N1CCC(CNC(=O)C2CC2CN2CCN(c3csc4cc(C(F)(F)F)ccc34)CC2)C1 (stereo not shown) [compound 833625] | 22.2
51 | CC[C@H]1CC[C@H](NC(=O)[C@@H]2C[C@H]2CN2CCN(c3cccc(C(F)(F)F)c3)CC2)CC1 [compound 827229] | 1.71
52 | Cn1nc(C2CCN(C[C@@H]3C[C@H]3C(=O)N3CCC(Cn4ccnc4)CC3)CC2)c2sccc21 [A002436292] | 129
53 | O=C(C1CC1CN1CCC(c2noc3ccsc23)CC1)N1CCN(CCC2CCCCC2)CC1 (stereo not shown) [compound 832058] | 24.2
54 | CC(C)(C)OC(=O)N1CCC(CNC(=O)[C@@H]2C[C@H]2CN2CCC(c3noc4c(C(F)(F)F)cccc34)CC2)CC1 [A002439261] | 55.3
55 | CC(C)(C)OC(=O)N1CCN(C[C@@H]2C[C@H]2C(=O)N[C@H]2CC[C@H](C)CC2)CC1 [compound 827184] | 237
56 | O=C(NC1CCN(Cc2cccc(F)c2)CC1)[C@@H]1C[C@H]1CN1CCN(c2csc3cc(C(F)(F)F)ccc23)CC1 [compound 832736] | 2.74

Same assay, conditions: read-out: d3Ki

Row | SMILES | Ki [nM]
57 | CC[C@H]1CC[C@H](NC(=O)[C@@H]2C[C@H]2CN2CCCN(c3csc4cc(C(F)(F)F)ccc34)CC2)CC1 [compound 826680] | 58
58 | CC1CCC(NC(=O)C2CC2CN2CCN(c3ncccn3)CC2)CC1 (stereo not shown) [compound 827197] | 27.6
59 | COc1cc(CNC(=O)[C@@H]2CCCC[C@@H]2CN2CCN(c3csc4cc(C(F)(F)F)ccc34)CC2)cc(OC)c1OC [compound 826116] | 59.9
60 | O=C(NC1CCCCC1)[C@@H]1CCC[C@H]1N1CCN(c2csc3cc(F)ccc23)CC1 [compound 826060] | 40.2
61 | CC[C@H]1CC[C@H](NC(=O)[C@@H]2C[C@H]2CN2CCN(c3ccccn3)CC2)CC1 [compound 827214] | 6.13
62 | O=C(NCc1cccs1)[C@@H]1CCC[C@H]1N1CCN(c2csc3cc(F)ccc23)CC1 [compound 825832] | 60.3
63 | CC[C@H]1CC[C@H](NC(=O)[C@@H]2C[C@H]2CN2CCN(c3cccc(C(F)(F)F)c3)CC2)CC1 [compound 827229] | 1.71
64 | CC[C@H]1CC[C@H](NC(=O)[C@@H]2C[C@H]2CN2CCN(c3ccccc3)CC2)CC1 [compound 827230] | 2.09
65 | O=C(NC1CC1)[C@@H]1CCCC[C@H]1CN1CCN(c2csc3cc(C(F)(F)F)ccc23)CC1 [compound 826121] | 502
66 | COc1ccc(N2CCN(C[C@@H]3C[C@H]3C(=O)N[C@H]3CC[C@H](C)CC3)CC2)cc1 [compound 827194] | 24.4
67 | C[C@H]1CC[C@H](NC(=O)[C@@H]2C[C@H]2CN2CCN(c3ccc(Cl)cc3)CC2)CC1 [compound 827178] | 12.4
68 | C[C@H]1CC[C@H](NC(=O)[C@@H]2C[C@H]2CN2CCN(c3cccc(Cl)c3)CC2)CC1 [compound 827173] | 2.78
69 | COc1ccccc1N1CCN(C[C@@H]2C[C@H]2C(=O)N[C@H]2CC[C@H](C)CC2)CC1 [compound 827179] | 1.04
70 | Cc1ccc(N2CCN(C[C@@H]3C[C@H]3C(=O)N[C@H]3CC[C@H](C)CC3)CC2)c(C)c1 [compound 827193] | 40.6
